Measurements reported in ChEMBL document CHEMBL4118282 (Bioorg Med Chem Lett, 2018).

Experiments:
[1] = Cytotoxicity against human MT4 cells assessed as reduction in cell viability after 5 days by MTT assay; assay type: cell-based
[2] = Therapeutic index, ratio of CC50 for human MT4 cells to EC50 for HIV1 3B […] infected in human MT4 cells; assay type: toxicity, cell-based; conditions: read-out: Ratio CC50/EC50

Row | Compound | CC50 at 120 h [1] [µM] | selectivity ratio [2]
1 | CC(C)[C@H](NC(=O)N(C)Cc1c[se]c(-c2ccccc2)n1)C(=O)N[C@@H](Cc1ccccc1)C[C@H](O)[C@H](Cc1ccccc1)NC(=O)OCc1cncs1 | 21 | 124
2 | CC(C)c1nc(CN(C)C(=O)N[C@H](C(=O)N[C@@H](Cc2ccccc2)C[C@H](O)[C@H](Cc2ccccc2)NC(=O)OCc2cncs2)C(C)C)c[se]1 | 42 | 76
